# In the supplement of paper PMC10307832:
# Experiments:
# Assay in all cases: relative viability (nuclei count vs DMSO), 5 days (fraction); higher = more cells survive
# XMD13-2 + Trametinib = compound: C1CC1C(=O)NC2=NNC3=C2C=CC(=C3)C4=CC(=CC=C4)C(=O)NC5CC5 [XMD13-2] + CC(=O)Nc1cccc(-n2c(=O)n(C3CC3)c(=O)c3c(Nc4ccc(I)cc4F)n(C)c(=O)c(C)c32)c1 [Trametinib] (partner 0.02 µM)
# Summary of the method: (§1)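 Relative viability is defined as nuclei in treated wells over nuclei in vehicle wells. Duplicate plates were run and medians reported. Lung cancer cell lines in 1536-well plates were dosed by pin tool one day after seeding, with one drug or with a fixed anchor-drug dose plus five library-drug doses (not always all listed) in √10 steps, and nuclei were counted after 5 days.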
# ALW-II-49-7 + Dasatinib = compound: Cc1ccc(C(=O)Nc2cccc(C(F)(F)F)c2)cc1Nc1cncc(C(N)=O)c1 [ALW-II-49-7] + Cc1nc(Nc2ncc(C(=O)Nc3c(C)cccc3Cl)s2)cc(N2CCN(CCO)CC2)n1 [Dasatinib] (partner 0.075 µM)
# Summary of the method: as §1
# XMD13-2 + Dasatinib = compound: C1CC1C(=O)NC2=NNC3=C2C=CC(=C3)C4=CC(=CC=C4)C(=O)NC5CC5 [XMD13-2] + Cc1nc(Nc2ncc(C(=O)Nc3c(C)cccc3Cl)s2)cc(N2CCN(CCO)CC2)n1 [Dasatinib] (partner 0.075 µM)
# Summary of the method: as §1
# ALW-II-49-7 + Linsitinib = compound: Cc1ccc(C(=O)Nc2cccc(C(F)(F)F)c2)cc1Nc1cncc(C(N)=O)c1 [ALW-II-49-7] + C[C@]1(O)C[C@@H](c2nc(-c3ccc4ccc(-c5ccccc5)nc4c3)c3c(N)nccn32)C1 [Linsitinib] (partner 1 µM)
# Summary of the method: as §1
Cell Line,relative viability (XMD13-2 + Trametinib; first compound 0.05 µM),relative viability (XMD13-2 + Trametinib; first compound 0.1581 µM),relative viability (XMD13-2 + Trametinib; first compound 0.5 µM),relative viability (XMD13-2 + Trametinib; first compound 1.581 µM),relative viability (XMD13-2 + Trametinib; first compound 5 µM),relative viability (ALW-II-49-7 + Dasatinib; first compound 0.08 µM),relative viability (ALW-II-49-7 + Dasatinib; first compound 0.253 µM),relative viability (ALW-II-49-7 + Dasatinib; first compound 0.8 µM),relative viability (ALW-II-49-7 + Dasatinib; first compound 2.53 µM),relative viability (ALW-II-49-7 + Dasatinib; first compound 8 µM),relative viability (XMD13-2 + Dasatinib; first compound 0.05 µM),relative viability (XMD13-2 + Dasatinib; first compound 0.1581 µM),relative viability (XMD13-2 + Dasatinib; first compound 0.5 µM),relative viability (XMD13-2 + Dasatinib; first compound 1.581 µM),relative viability (XMD13-2 + Dasatinib; first compound 5 µM),relative viability (ALW-II-49-7 + Linsitinib; first compound 0.08 µM),relative viability (ALW-II-49-7 + Linsitinib; first compound 0.253 µM),relative viability (ALW-II-49-7 + Linsitinib; first compound 0.8 µM),relative viability (ALW-II-49-7 + Linsitinib; first compound 2.53 µM),relative viability (ALW-II-49-7 + Linsitinib; first compound 8 µM)
201T,0.712,0.748,0.736,0.703,0.783,0.616,0.664,0.545,0.594,0.479,0.686,0.533,0.578,0.555,0.563,1.03,1.06,1.02,0.983,1
A549,,,,,,,,,,,,,,,,0.654,0.511,0.551,0.263,0.481
A-427,0.795,0.649,0.755,,0.581,0.686,0.824,0.733,0.741,0.627,0.767,0.792,0.705,0.683,0.536,1.17,1.15,1.15,1.12,1.18
ABC-1,,,,,,0.501,0.627,0.506,0.656,0.483,0.53,0.542,0.599,0.51,0.426,0.87,0.85,0.676,0.885,0.765
BEN,1.11,1,1.21,0.991,1.07,0.378,0.341,0.348,0.325,0.305,0.321,0.327,0.343,0.246,0.331,0.69,0.865,0.99,,0.936
CAL-12T,0.465,0.399,0.332,0.317,0.307,0.433,0.223,0.277,0.372,0.266,0.497,0.402,0.405,0.396,0.409,1.01,0.965,0.736,0.796,0.701
COR-L23,0.611,0.591,0.684,0.552,0.626,0.483,0.419,0.45,0.443,0.523,0.585,0.544,0.477,0.42,0.497,0.947,0.829,0.769,0.953,0.957
COR-L 105,0.423,0.466,0.432,0.476,0.393,0.304,0.308,0.326,0.272,0.329,0.463,0.325,0.343,0.365,0.323,0.884,0.848,0.824,0.745,0.752
Calu-6,,,,,,,,,,,,,,,,0.987,0.847,0.903,0.881,0.852
ChaGo-K-1,0.937,0.89,0.959,0.847,0.835,0.538,0.668,0.554,0.539,0.501,0.651,0.533,0.604,0.602,0.517,,,,,
EBC-1,,,,,,,,,,,,,,,,0.83,0.784,0.358,0.856,0.391
EKVX,0.383,0.341,0.248,,0.299,0.382,0.481,0.546,0.425,0.454,0.591,0.445,0.548,0.594,0.497,0.972,0.91,1.05,0.699,0.815
EMC-BAC-2,0.986,0.893,0.824,,0.805,0.311,0.324,0.284,0.293,0.29,0.32,0.323,0.202,0.302,0.25,0.811,0.814,0.894,0.836,0.747
EPLC-272H,0.289,0.311,0.301,0.257,0.271,0.283,,0.26,0.345,0.375,0.39,0.31,0.503,0.317,0.269,0.954,0.922,1.15,1.26,1.18
H3255,0.749,0.66,0.556,,0.475,0.436,0.234,0.431,0.322,0.348,0.425,0.402,0.367,0.294,0.373,0.832,0.892,0.94,0.884,0.9
HARA,0.667,0.948,1.16,0.776,0.674,0.351,0.272,0.148,0.22,0.161,0.353,0.196,0.279,0.295,0.298,0.914,0.77,0.929,0.968,1.02
HCC-15,0.353,0.351,0.428,0.363,0.344,0.667,0.614,0.692,0.684,0.664,0.775,0.66,0.715,0.614,0.423,0.963,0.931,0.973,0.971,0.947
HCC-44,1.2,1.04,1.17,1.05,1.05,,,,,,,,,,,0.6,0.658,0.686,0.619,0.839
HCC-78,0.842,0.71,0.834,0.833,0.792,0.475,0.466,,0.361,0.383,0.565,0.321,0.36,0.347,0.351,0.485,0.473,0.609,0.5,0.487
